Structures can show the parent of a compound that is named as a salt.
What was measured:
Parkinson's disease [1] = settings: patients undergoing treatment with L-Dopa; cited from earlier work
dopamine D2 = settings: versus bromocriptine and pergolide; cited from earlier work
Parkinson's disease [2] = settings: statement in words; cited from earlier work
rabbits = assay: Skin irritation study in rabbits, modified Draize irritation protocol; type: in vivo, rabbit; settings: conclusion in words from Table 4
Description: The skin irritation study in rabbits using a modified Draize irritation protocol. The treatments included:
1) different activities of ropinirole in the selected vehicle that gave the highest flux of ropinirole slat; and
2) ropinirole in two selected vehicles. A proprietary vehicle that has been used in skin flux studies were tested as a control.
Mineral oil was used as the negative control in the study. The mean primary irritation score for each treatment was calculated.
3) ropinirole and base in three prototype systems (36048C, 36047G and 36040F; see Table 4 in Example 3, below).
Various ropinirole formulations were prepared and irritation studies conducted as described above.

[3] = in water at 20° C.; cited from earlier work

## N[C@@H](Cc1ccc(O)c(O)c1)C(=O)O [L-Dopa]
Parkinson's disease [1]
  therapeutic response fluctuations: severe therapeutic response fluctuations

## CCCN(CCC)CCc1cccc2c1CC(=O)N2 [ropinirole, 4-[2-(dipropylamino)ethyl]-1,3-dihydro-2H-indol-2-one]
Dopamine D2
  specificity as dopamine D2 agonist: more specific dopamine D2 agonist than other dopamine agonists such as bromocriptine and pergolide
Parkinson's disease [2]
  effectiveness in the treatment of Parkinson's disease: effective in the treatment of Parkinson's disease
rabbits
  irritation encountered upon transdermal administration: minimal

## CCCN(CCC)CCc1cccc2c1CC(=O)N2 [Ropinirole hydrochloride]
[3]
  solubility: 133 mg/mL

Reference: US5807570A, “Transdermal administration of ropinirole and analogs thereof” (priority 1996, dated 1998)
